# From patent US5665704A, “Receptor specific atrial natriuretic peptides” (Genentech, Inc., priority 1995, dated 1997)
# Bridge positions count the residues as written; N and C are the ends. Square brackets hold non-standard residues; d marks the D form. Peptide text beside a SMILES is read from it. Cha = N[C@@H](CC1CCCCC1)C(=O)O; Mpa = O=C(O)CCS
# Key:
# hNPR-A = target: T1, hNPR-A (Homo sapiens, UniProt P16066); assay: Binding affinity for hNPR-A (competitive displacement of I^125 labeled wild-type ANF); details: Table I; read-out: Binding Affinity IC50 (pM) hNPR-A
# T1 sequence (P16066 33-1061): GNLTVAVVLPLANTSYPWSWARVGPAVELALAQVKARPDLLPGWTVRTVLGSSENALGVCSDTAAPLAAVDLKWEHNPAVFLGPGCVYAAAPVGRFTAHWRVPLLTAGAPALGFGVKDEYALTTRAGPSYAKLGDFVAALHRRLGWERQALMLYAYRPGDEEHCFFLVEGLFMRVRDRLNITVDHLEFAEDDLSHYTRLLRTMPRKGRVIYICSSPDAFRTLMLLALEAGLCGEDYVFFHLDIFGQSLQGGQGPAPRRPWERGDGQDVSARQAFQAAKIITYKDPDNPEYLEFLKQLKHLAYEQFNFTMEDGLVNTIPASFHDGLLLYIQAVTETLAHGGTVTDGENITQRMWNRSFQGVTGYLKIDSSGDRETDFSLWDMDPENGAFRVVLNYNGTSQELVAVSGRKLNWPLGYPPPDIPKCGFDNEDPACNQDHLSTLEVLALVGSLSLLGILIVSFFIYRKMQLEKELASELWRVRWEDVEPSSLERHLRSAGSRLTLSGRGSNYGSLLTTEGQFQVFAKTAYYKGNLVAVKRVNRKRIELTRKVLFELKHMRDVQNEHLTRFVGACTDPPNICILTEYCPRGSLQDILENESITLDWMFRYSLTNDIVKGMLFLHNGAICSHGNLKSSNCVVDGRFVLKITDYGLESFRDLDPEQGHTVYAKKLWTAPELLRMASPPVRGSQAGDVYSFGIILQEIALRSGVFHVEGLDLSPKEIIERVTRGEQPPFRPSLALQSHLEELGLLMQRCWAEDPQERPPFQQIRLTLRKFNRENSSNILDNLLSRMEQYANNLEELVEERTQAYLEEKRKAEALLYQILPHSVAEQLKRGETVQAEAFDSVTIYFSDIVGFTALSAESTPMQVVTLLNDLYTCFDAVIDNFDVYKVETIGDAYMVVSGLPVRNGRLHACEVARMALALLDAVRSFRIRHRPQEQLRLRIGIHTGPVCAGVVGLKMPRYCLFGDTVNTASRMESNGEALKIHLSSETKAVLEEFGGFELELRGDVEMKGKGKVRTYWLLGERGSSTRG
# hNPR-C = target: T2, hNPR-C (Homo sapiens, UniProt P17342); assay: Binding affinity for clearance receptor hNPR-C; details: Table I; read-out: Binding Affinity IC50 (pM) hNPR-C
# T2 sequence (P17342 27-541): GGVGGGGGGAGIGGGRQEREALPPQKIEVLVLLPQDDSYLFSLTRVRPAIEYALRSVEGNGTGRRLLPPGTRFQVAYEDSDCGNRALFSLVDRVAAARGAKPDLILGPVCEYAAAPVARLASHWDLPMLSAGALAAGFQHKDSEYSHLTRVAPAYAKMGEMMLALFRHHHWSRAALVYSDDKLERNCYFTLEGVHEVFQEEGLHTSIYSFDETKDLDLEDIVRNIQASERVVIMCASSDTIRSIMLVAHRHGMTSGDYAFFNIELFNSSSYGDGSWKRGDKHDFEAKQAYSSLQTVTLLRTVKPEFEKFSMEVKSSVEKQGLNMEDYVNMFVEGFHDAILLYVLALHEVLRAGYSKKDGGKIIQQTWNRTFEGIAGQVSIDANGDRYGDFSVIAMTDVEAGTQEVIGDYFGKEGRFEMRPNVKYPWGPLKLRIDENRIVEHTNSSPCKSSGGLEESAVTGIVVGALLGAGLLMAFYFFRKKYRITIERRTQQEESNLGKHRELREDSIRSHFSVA
# Description: For assay systems to measure binding of hANF and the compounds of this invention to hNPR-C see: Schank, D. B., et al., Biochem. Biophys. Res. Comm. 127:433-442 (1985); Scarborough, R. M., J. Biol. Chem. 261:12960-12964 and WO 90/01940.
IC50 (hNPR-A),IC50 (hNPR-C),SMILES
29400 pM,1e+07 pM,CC[C@H](C)[C@@H]1NC(=O)[C@H](CCCNC(=N)N)NC(=O)[C@H](CC(=O)O)NC(=O)[C@H]([C@@H](C)CC)NC(=O)[C@H](CO)NC(=O)CNC(=O)[C@H]([C@@H](C)O)NC(=O)[C@H](Cc2ccccc2)NC(=O)[C@@H](CO)NC(=O)[C@@H](NC(=O)[C@H](CO)NC(=O)[C@H](CO)NC(=O)[C@H](CCCNC(=N)N)NC(=O)[C@H](CCCNC(=N)N)NC(=O)[C@H](CC(C)C)NC(=O)[C@@H](N)CO)CSSC[C@@H](C(=O)N[C@@H](CC(N)=O)C(=O)N[C@@H](CO)C(=O)N[C@@H](Cc2ccccc2)C(=O)N[C@@H](CCCNC(=N)N)C(=O)N[C@@H](Cc2ccc(O)cc2)C(=O)O)NC(=O)CNC(=O)[C@H](CC(C)C)NC(=O)CNC(=O)[C@H](CO)NC(=O)[C@H](CCC(N)=O)NC(=O)[C@H](C)NC(=O)[C@H](CCCNC(=N)N)NC1=O [ANF74] (H-SLRRSSC[dS]FTGSIDRIRAQSGLGCNSFRY-OH; disulfide 7-24)
2080 pM,2e+06 pM,CC[C@H](C)[C@@H]1NC(=O)[C@H](CCCNC(=N)N)NC(=O)[C@H](CC(=O)O)NC(=O)[C@H]([C@@H](C)CC)NC(=O)[C@H](CO)NC(=O)CNC(=O)[C@H]([C@@H](C)O)NC(=O)[C@H](Cc2ccccc2)NC(=O)[C@@H](C)NC(=O)[C@@H](NC(=O)[C@H](CO)NC(=O)[C@H](CO)NC(=O)[C@H](CCCNC(=N)N)NC(=O)[C@H](CCCNC(=N)N)NC(=O)[C@H](CC(C)C)NC(=O)[C@@H](N)CO)CSSC[C@@H](C(=O)N[C@@H](CC(N)=O)C(=O)N[C@@H](CO)C(=O)N[C@@H](Cc2ccccc2)C(=O)N[C@@H](CCCNC(=N)N)C(=O)N[C@@H](Cc2ccc(O)cc2)C(=O)O)NC(=O)CNC(=O)[C@H](CC(C)C)NC(=O)CNC(=O)[C@H](CO)NC(=O)[C@H](CCC(N)=O)NC(=O)[C@H](C)NC(=O)[C@H](CCCNC(=N)N)NC1=O [ANF75] (H-SLRRSSC[dA]FTGSIDRIRAQSGLGCNSFRY-OH; disulfide 7-24)
2.4 pM,1.48e+06 pM,CC[C@H](C)[C@@H]1NC(=O)[C@H](CCCNC(=N)N)NC(=O)[C@H](CC(=O)O)NC(=O)[C@H]([C@@H](C)CC)NC(=O)[C@H](CO)NC(=O)CNC(=O)[C@H]([C@@H](C)O)NC(=O)[C@H](CC2CCCCC2)NC(=O)[C@@H](NC(=O)[C@H](CO)NC(=O)[C@H](CO)NC(=O)[C@H](CCCNC(=N)N)NC(=O)[C@H](CCCNC(=N)N)NC(=O)[C@H](CC(C)C)NC(=O)[C@@H](N)CO)CSSC[C@@H](C(=O)N[C@@H](CC(N)=O)C(=O)N[C@@H](CO)C(=O)N[C@@H](Cc2ccccc2)C(=O)N[C@@H](CCCNC(=N)N)C(=O)N[C@@H](Cc2ccc(O)cc2)C(=O)O)NC(=O)CNC(=O)[C@H](CC(C)C)NC(=O)CNC(=O)[C@H](CO)NC(=O)[C@H](CCC(N)=O)NC(=O)[C@H](C)NC(=O)[C@H](CCCNC(=N)N)NC1=O [ANF79] (H-SLRRSSC[Cha]TGSIDRIRAQSGLGCNSFRY-OH; disulfide 7-23)
423 pM,739000 pM,CC[C@H](C)[C@@H]1NC(=O)[C@H](CCCNC(=N)N)NC(=O)[C@H](CC(=O)O)NC(=O)[C@H]([C@@H](C)CC)NC(=O)[C@H](CO)NC(=O)CNC(=O)[C@@H]([C@H](C)O)NC(=O)[C@H](Cc2ccccc2)NC(=O)CCSSC[C@@H](C(=O)N[C@@H](CC(N)=O)C(=O)N[C@@H](CO)C(=O)N[C@@H](Cc2ccccc2)C(=O)N[C@@H](CCCNC(=N)N)C(=O)N[C@@H](Cc2ccc(O)cc2)C(=O)O)NC(=O)CNC(=O)[C@H](CC(C)C)NC(=O)CNC(=O)[C@H](CO)NC(=O)[C@H](CCC(N)=O)NC(=O)[C@H](C)NC(=O)[C@H](CCCNC(=N)N)NC1=O [ANF80] ([Mpa]F[dT]GSIDRIRAQSGLGCNSFRY-OH; disulfide 1-17)
1400 pM,3.86e+06 pM,CC[C@H](C)[C@@H]1NC(=O)[C@H](CCCNC(=N)N)NC(=O)[C@H](CC(=O)O)NC(=O)[C@H]([C@@H](C)CC)NC(=O)[C@H](CO)NC(=O)CNC(=O)[C@@H](C)NC(=O)[C@H](Cc2ccccc2)NC(=O)CCSSC[C@@H](C(=O)N[C@@H](CC(N)=O)C(=O)N[C@@H](CO)C(=O)N[C@@H](Cc2ccccc2)C(=O)N[C@@H](CCCNC(=N)N)C(=O)N[C@@H](Cc2ccc(O)cc2)C(=O)O)NC(=O)CNC(=O)[C@H](CC(C)C)NC(=O)CNC(=O)[C@H](CO)NC(=O)[C@H](CCC(N)=O)NC(=O)[C@H](C)NC(=O)[C@H](CCCNC(=N)N)NC1=O [ANF81] ([Mpa]F[dA]GSIDRIRAQSGLGCNSFRY-OH; disulfide 1-17)
16 pM,3.44e+06 pM,CC[C@H](C)[C@@H]1NC(=O)[C@H](CCCNC(=N)N)NC(=O)[C@H](CC(=O)O)NC(=O)[C@H]([C@@H](C)CC)NC(=O)[C@H](CO)NC(=O)CNC(=O)[C@H]([C@@H](C)O)NC(=O)[C@H](Cc2ccccc2)N(C)C(=O)[C@@H](NC(=O)[C@H](CO)NC(=O)[C@H](CO)NC(=O)[C@H](CCCNC(=N)N)NC(=O)[C@H](CCCNC(=N)N)NC(=O)[C@H](CC(C)C)NC(=O)[C@@H](N)CO)CSSC[C@@H](C(=O)N[C@@H](CC(N)=O)C(=O)N[C@@H](CO)C(=O)N[C@@H](Cc2ccccc2)C(=O)N[C@@H](CCCNC(=N)N)C(=O)N[C@@H](Cc2ccc(O)cc2)C(=O)O)NC(=O)CNC(=O)[C@H](CC(C)C)NC(=O)CNC(=O)[C@H](CO)NC(=O)[C@H](CCC(N)=O)NC(=O)[C@H](C)NC(=O)[C@H](CCCNC(=N)N)NC1=O [ANF83]
21 pM,1.9e+07 pM,CC[C@H](C)[C@@H]1NC(=O)[C@H](CCCNC(=N)N)NC(=O)[C@H](CC(=O)O)NC(=O)[C@H]([C@@H](C)CC)NC(=O)[C@H](CO)NC(=O)CNC(=O)[C@H]([C@@H](C)O)NC(=O)[C@H](Cc2ccccc2)NC[C@@H](NC(=O)[C@H](CO)NC(=O)[C@H](CO)NC(=O)[C@H](CCCNC(=N)N)NC(=O)[C@H](CCCNC(=N)N)NC(=O)[C@H](CC(C)C)NC(=O)[C@@H](N)CO)CSSC[C@@H](C(=O)N[C@@H](CC(N)=O)C(=O)N[C@@H](CO)C(=O)N[C@@H](Cc2ccccc2)C(=O)N[C@@H](CCCNC(=N)N)C(=O)N[C@@H](Cc2ccc(O)cc2)C(=O)O)NC(=O)CNC(=O)[C@H](CC(C)C)NC(=O)CNC(=O)[C@H](CO)NC(=O)[C@H](CCC(N)=O)NC(=O)[C@H](C)NC(=O)[C@H](CCCNC(=N)N)NC1=O [ANF84]
1200 pM,6.14e+06 pM,CC[C@H](C)[C@@H]1NC(=O)[C@H](CCCNC(=N)N)NC(=O)[C@H](CC(=O)O)NC(=O)[C@H]([C@@H](C)CC)NC(=O)[C@H](CC(=O)O)NC(=O)CNC(=O)[C@@H](C)NC(=O)[C@H](Cc2ccccc2)NC(=O)[C@@H](NC(=O)[C@H](CO)NC(=O)[C@H](CO)NC(=O)[C@H](CCCNC(=N)N)NC(=O)[C@H](CCCNC(=N)N)NC(=O)[C@H](CC(C)C)NC(=O)[C@@H](N)CO)CSSC[C@@H](C(=O)N[C@@H](CC(N)=O)C(=O)N[C@@H](CO)C(=O)N[C@@H](Cc2ccccc2)C(=O)N[C@@H](CCCNC(=N)N)C(=O)N[C@@H](Cc2ccc(O)cc2)C(=O)O)NC(=O)CNC(=O)[C@H](CC(C)C)NC(=O)CNC(=O)[C@H](CO)NC(=O)[C@H](CCC(N)=O)NC(=O)[C@H](C)NC(=O)[C@H](CCCNC(=N)N)NC1=O [ANF90] (H-SLRRSSCF[dA]GDIDRIRAQSGLGCNSFRY-OH; disulfide 7-23)
